Assay results taken from patent US20260144776A1, “COMBINATION THERAPY FOR A DOPAMINE AGONIST” (priority 2017, published 2026).

Key:
[1] = test system: humans; details: in vivo
Method: The study was single center, single-blind study.
Once a subject had reached his/her first intolerable dose (FID-1), upward dose escalation was discontinued.
All other provisions of the protocol remained unchanged. Assessments were the same as those planned for the dose escalation day.
On each study day, subjects were followed up for up to 8 hours following drug administration for AEs, vital signs, ECGs. In addition, a laboratory panel was taken at screening and at the end of the study.

[2] = test system: depressive symptoms in patients with PD; details: 12 weeks, 296 PD patients, pramipexole 0.125 to 1.0 mg/kg; placebo 4.0 (SE 0.5), p=0.01; cited from earlier work
[3] = test system: patients with a DSM-III-R diagnosis of major depression; details: pramipexole 5.0 mg group, cited from earlier work
[4] = test system: animal behavior simulating symptoms of depression; details: high doses of pramipexole; cited from earlier work

Compound: CCCN[C@H]1CCc2nc(N)sc2C1 [Pramipexole, (S)-6-propylamino-4,5,6,7-tetrahydro-1,3-benzothiazole-2-amine]
- dose limiting toxicity [1]: gastro-intestinal adverse events
- BDI scores decreased by an adjusted [2]: 5.9 (SE 0.5)
- patients who discontinued treatment prematurely ([3]; mainly because of adverse events): 57.6%
- improvement at week 8 (change from baseline) ([3]; best improvement, no p value against placebo because of drop-out rate): −15.00
- patients who reported nausea [3]: 76%
- patients who reported vomiting [3]: 39%
- activity in tests of animal behavior simulating symptoms of depression [4]: active
